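Briefly, cells in 96-well plates were exposed to five compound concentrations for 48 h, and endpoints were estimated by linear interpolation. Definition used: TGI = concentration required for complete inhibition of growth.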
Tested on: HT29 colon
Experiment: DTP human tumour cell line panel, 48 h

For Cc1cc(C)nc(NS(=O)(=O)c2ccc(NC(=O)c3cccc4c(Nc5ccc(S(=O)(=O)N=C(N)N)cc5)c5ccccc5nc34)cc2)n1, which TGI is on record?
The TGI was > 100 µM.

For Cc1ccccc1NC(=O)C(=O)C1CN(c2ccccc2)N=C1N (stereo unspecified), which TGI is on record?
Its TGI is > 100 µM.

How did the TGI turn out when CCOC(=O)NC(=O)c1cn(CCN2CCN(C(=O)CCCCCCCCCCNc3ncnc4c3ncn4C3OC(CO)C(O)C3O)CC2)c(=O)[nH]c1=O (stereo unspecified) was run?
Its TGI is > 100 µM.

Tested on: HCC-2998 colon
Experiment: DTP human tumour cell line panel, 48 h

How did the TGI turn out when O=c1[nH]c2cc([N+](=O)[O-])ccc2nc1/C(=N/Nc1ccccc1)C(O)c1ccc(Cl)cc1Cl (stereo unspecified) was run?
Its TGI is > 100 µM.

Which TGI does the source give for Cc1cc(C)nc(NS(=O)(=O)c2ccc(NC(=O)c3cccc4c(Nc5ccc(S(=O)(=O)N=C(N)N)cc5)c5ccccc5nc34)cc2)n1 here?
Its TGI is 22.6 µM.

C#CCn1c(=O)[nH]c(=O)c2cccnc21 was tested. Which TGI did it give?
The TGI was > 100 µM.

How did the TGI turn out when Cc1ccccc1NC(=O)C(=O)C1CN(c2ccccc2)N=C1N (stereo unspecified) was run?
The TGI was > 100 µM.

With CCOC(=O)NC(=O)c1cn(CCN2CCN(C(=O)CCCCCCCCCCNc3ncnc4c3ncn4C3OC(CO)C(O)C3O)CC2)c(=O)[nH]c1=O (stereo unspecified) as the compound, how does the TGI read?
The TGI was > 100 µM.

Tested on: HCT-116 colon
Experiment: DTP human tumour cell line panel, 48 h

How did the TGI turn out when O=c1[nH]c2cc([N+](=O)[O-])ccc2nc1/C(=N/Nc1ccccc1)C(O)c1ccc(Cl)cc1Cl (stereo unspecified) was run?
The TGI was > 100 µM.

How did the TGI turn out when Cc1cc(C)nc(NS(=O)(=O)c2ccc(NC(=O)c3cccc4c(Nc5ccc(S(=O)(=O)N=C(N)N)cc5)c5ccccc5nc34)cc2)n1 was run?
The TGI was > 100 µM.

How did the TGI turn out when C#CCn1c(=O)[nH]c(=O)c2cccnc21 was run?
The TGI was > 100 µM.

Cc1ccccc1NC(=O)C(=O)C1CN(c2ccccc2)N=C1N (stereo unspecified) was tested. Which TGI did it give?
Its TGI is > 100 µM.

How did the TGI turn out when CCOC(=O)NC(=O)c1cn(CCN2CCN(C(=O)CCCCCCCCCCNc3ncnc4c3ncn4C3OC(CO)C(O)C3O)CC2)c(=O)[nH]c1=O (stereo unspecified) was run?
The TGI was > 100 µM.

Tested on: HCT-15 colon
Experiment: DTP human tumour cell line panel, 48 h

For O=c1[nH]c2cc([N+](=O)[O-])ccc2nc1/C(=N/Nc1ccccc1)C(O)c1ccc(Cl)cc1Cl (stereo unspecified), which TGI is on record?
The TGI was > 100 µM.

Which TGI does the source give for Cc1cc(C)nc(NS(=O)(=O)c2ccc(NC(=O)c3cccc4c(Nc5ccc(S(=O)(=O)N=C(N)N)cc5)c5ccccc5nc34)cc2)n1 here?
Its TGI is > 100 µM.

With C#CCn1c(=O)[nH]c(=O)c2cccnc21 as the compound, how does the TGI read?
Its TGI is > 100 µM.

Which TGI does the source give for CCOC(=O)NC(=O)c1cn(CCN2CCN(C(=O)CCCCCCCCCCNc3ncnc4c3ncn4C3OC(CO)C(O)C3O)CC2)c(=O)[nH]c1=O (stereo unspecified) here?
Its TGI is > 100 µM.

Tested on: CAKI-1 renal
Experiment: DTP human tumour cell line panel, 48 h

With Cc1cc(C)nc(NS(=O)(=O)c2ccc(NC(=O)c3cccc4c(Nc5ccc(S(=O)(=O)N=C(N)N)cc5)c5ccccc5nc34)cc2)n1 as the compound, how does the TGI read?
The TGI was 55.2 µM.

C#CCn1c(=O)[nH]c(=O)c2cccnc21 was tested. Which TGI did it give?
Its TGI is > 100 µM.

For Cc1ccccc1NC(=O)C(=O)C1CN(c2ccccc2)N=C1N (stereo unspecified), which TGI is on record?
The TGI was > 100 µM.

With CCOC(=O)NC(=O)c1cn(CCN2CCN(C(=O)CCCCCCCCCCNc3ncnc4c3ncn4C3OC(CO)C(O)C3O)CC2)c(=O)[nH]c1=O (stereo unspecified) as the compound, how does the TGI read?
Its TGI is > 100 µM.

Tested on: DMS 114 small cell lung
Experiment: DTP human tumour cell line panel, 48 h

With O=c1[nH]c2cc([N+](=O)[O-])ccc2nc1/C(=N/Nc1ccccc1)C(O)c1ccc(Cl)cc1Cl (stereo unspecified) as the compound, how does the TGI read?
Its TGI is 44.7 µM.

With CCOC(=O)NC(=O)c1cn(CCN2CCN(C(=O)CCCCCCCCCCNc3ncnc4c3ncn4C3OC(CO)C(O)C3O)CC2)c(=O)[nH]c1=O (stereo unspecified) as the compound, how does the TGI read?
Its TGI is > 100 µM.

Tested on: DMS 273 small cell lung
Experiment: DTP human tumour cell line panel, 48 h

With O=c1[nH]c2cc([N+](=O)[O-])ccc2nc1/C(=N/Nc1ccccc1)C(O)c1ccc(Cl)cc1Cl (stereo unspecified) as the compound, how does the TGI read?
The TGI was > 100 µM.

For Cc1cc(C)nc(NS(=O)(=O)c2ccc(NC(=O)c3cccc4c(Nc5ccc(S(=O)(=O)N=C(N)N)cc5)c5ccccc5nc34)cc2)n1, which TGI is on record?
Its TGI is 80.6 µM.

How did the TGI turn out when C#CCn1c(=O)[nH]c(=O)c2cccnc21 was run?
The TGI was > 100 µM.

Tested on: OVCAR-8 ovarian
Experiment: DTP human tumour cell line panel, 48 h

For O=c1[nH]c2cc([N+](=O)[O-])ccc2nc1/C(=N/Nc1ccccc1)C(O)c1ccc(Cl)cc1Cl (stereo unspecified), which TGI is on record?
Its TGI is > 100 µM.

For Cc1cc(C)nc(NS(=O)(=O)c2ccc(NC(=O)c3cccc4c(Nc5ccc(S(=O)(=O)N=C(N)N)cc5)c5ccccc5nc34)cc2)n1, which TGI is on record?
The TGI was > 100 µM.

With Cc1ccccc1NC(=O)C(=O)C1CN(c2ccccc2)N=C1N (stereo unspecified) as the compound, how does the TGI read?
Its TGI is > 100 µM.

Which TGI does the source give for CCOC(=O)NC(=O)c1cn(CCN2CCN(C(=O)CCCCCCCCCCNc3ncnc4c3ncn4C3OC(CO)C(O)C3O)CC2)c(=O)[nH]c1=O (stereo unspecified) here?
The TGI was > 100 µM.

Tested on: HL-60(TB) leukemia
Experiment: DTP human tumour cell line panel, 48 h

For O=c1[nH]c2cc([N+](=O)[O-])ccc2nc1/C(=N/Nc1ccccc1)C(O)c1ccc(Cl)cc1Cl (stereo unspecified), which TGI is on record?
The TGI was > 100 µM.

How did the TGI turn out when Cc1cc(C)nc(NS(=O)(=O)c2ccc(NC(=O)c3cccc4c(Nc5ccc(S(=O)(=O)N=C(N)N)cc5)c5ccccc5nc34)cc2)n1 was run?
Its TGI is 26.6 µM.

With C#CCn1c(=O)[nH]c(=O)c2cccnc21 as the compound, how does the TGI read?
Its TGI is > 100 µM.

Cc1ccccc1NC(=O)C(=O)C1CN(c2ccccc2)N=C1N (stereo unspecified) was tested. Which TGI did it give?
The TGI was > 100 µM.

Which TGI does the source give for CCOC(=O)NC(=O)c1cn(CCN2CCN(C(=O)CCCCCCCCCCNc3ncnc4c3ncn4C3OC(CO)C(O)C3O)CC2)c(=O)[nH]c1=O (stereo unspecified) here?
The TGI was > 100 µM.

Tested on: SNB-75 CNS
Experiment: DTP human tumour cell line panel, 48 h

How did the TGI turn out when O=c1[nH]c2cc([N+](=O)[O-])ccc2nc1/C(=N/Nc1ccccc1)C(O)c1ccc(Cl)cc1Cl (stereo unspecified) was run?
The TGI was > 100 µM.

With Cc1cc(C)nc(NS(=O)(=O)c2ccc(NC(=O)c3cccc4c(Nc5ccc(S(=O)(=O)N=C(N)N)cc5)c5ccccc5nc34)cc2)n1 as the compound, how does the TGI read?
The TGI was > 100 µM.

C#CCn1c(=O)[nH]c(=O)c2cccnc21 was tested. Which TGI did it give?
The TGI was > 100 µM.

How did the TGI turn out when Cc1ccccc1NC(=O)C(=O)C1CN(c2ccccc2)N=C1N (stereo unspecified) was run?
The TGI was > 100 µM.

CCOC(=O)NC(=O)c1cn(CCN2CCN(C(=O)CCCCCCCCCCNc3ncnc4c3ncn4C3OC(CO)C(O)C3O)CC2)c(=O)[nH]c1=O (stereo unspecified) was tested. Which TGI did it give?
Its TGI is > 100 µM.

Tested on: MOLT-4 leukemia
Experiment: DTP human tumour cell line panel, 48 h

With O=c1[nH]c2cc([N+](=O)[O-])ccc2nc1/C(=N/Nc1ccccc1)C(O)c1ccc(Cl)cc1Cl (stereo unspecified) as the compound, how does the TGI read?
Its TGI is > 100 µM.

Cc1cc(C)nc(NS(=O)(=O)c2ccc(NC(=O)c3cccc4c(Nc5ccc(S(=O)(=O)N=C(N)N)cc5)c5ccccc5nc34)cc2)n1 was tested. Which TGI did it give?
The TGI was > 100 µM.

How did the TGI turn out when C#CCn1c(=O)[nH]c(=O)c2cccnc21 was run?
The TGI was > 100 µM.

For Cc1ccccc1NC(=O)C(=O)C1CN(c2ccccc2)N=C1N (stereo unspecified), which TGI is on record?
Its TGI is > 100 µM.

Which TGI does the source give for CCOC(=O)NC(=O)c1cn(CCN2CCN(C(=O)CCCCCCCCCCNc3ncnc4c3ncn4C3OC(CO)C(O)C3O)CC2)c(=O)[nH]c1=O (stereo unspecified) here?
The TGI was > 100 µM.

Tested on: COLO 205 colon
Experiment: DTP human tumour cell line panel, 48 h

Which TGI does the source give for O=c1[nH]c2cc([N+](=O)[O-])ccc2nc1/C(=N/Nc1ccccc1)C(O)c1ccc(Cl)cc1Cl (stereo unspecified) here?
The TGI was > 100 µM.

With Cc1cc(C)nc(NS(=O)(=O)c2ccc(NC(=O)c3cccc4c(Nc5ccc(S(=O)(=O)N=C(N)N)cc5)c5ccccc5nc34)cc2)n1 as the compound, how does the TGI read?
Its TGI is > 100 µM.

Which TGI does the source give for C#CCn1c(=O)[nH]c(=O)c2cccnc21 here?
Its TGI is > 100 µM.

With CCOC(=O)NC(=O)c1cn(CCN2CCN(C(=O)CCCCCCCCCCNc3ncnc4c3ncn4C3OC(CO)C(O)C3O)CC2)c(=O)[nH]c1=O (stereo unspecified) as the compound, how does the TGI read?
The TGI was > 100 µM.

Tested on: SNB-19 CNS
Experiment: DTP human tumour cell line panel, 48 h

For Cc1cc(C)nc(NS(=O)(=O)c2ccc(NC(=O)c3cccc4c(Nc5ccc(S(=O)(=O)N=C(N)N)cc5)c5ccccc5nc34)cc2)n1, which TGI is on record?
The TGI was > 100 µM.

Which TGI does the source give for C#CCn1c(=O)[nH]c(=O)c2cccnc21 here?
The TGI was > 100 µM.

Cc1ccccc1NC(=O)C(=O)C1CN(c2ccccc2)N=C1N (stereo unspecified) was tested. Which TGI did it give?
Its TGI is > 100 µM.

With CCOC(=O)NC(=O)c1cn(CCN2CCN(C(=O)CCCCCCCCCCNc3ncnc4c3ncn4C3OC(CO)C(O)C3O)CC2)c(=O)[nH]c1=O (stereo unspecified) as the compound, how does the TGI read?
The TGI was > 100 µM.

Tested on: SF-268 CNS
Experiment: DTP human tumour cell line panel, 48 h

With O=c1[nH]c2cc([N+](=O)[O-])ccc2nc1/C(=N/Nc1ccccc1)C(O)c1ccc(Cl)cc1Cl (stereo unspecified) as the compound, how does the TGI read?
Its TGI is > 100 µM.

Cc1cc(C)nc(NS(=O)(=O)c2ccc(NC(=O)c3cccc4c(Nc5ccc(S(=O)(=O)N=C(N)N)cc5)c5ccccc5nc34)cc2)n1 was tested. Which TGI did it give?
Its TGI is > 100 µM.

With C#CCn1c(=O)[nH]c(=O)c2cccnc21 as the compound, how does the TGI read?
Its TGI is > 100 µM.

Cc1ccccc1NC(=O)C(=O)C1CN(c2ccccc2)N=C1N (stereo unspecified) was tested. Which TGI did it give?
The TGI was > 100 µM.

CCOC(=O)NC(=O)c1cn(CCN2CCN(C(=O)CCCCCCCCCCNc3ncnc4c3ncn4C3OC(CO)C(O)C3O)CC2)c(=O)[nH]c1=O (stereo unspecified) was tested. Which TGI did it give?
The TGI was > 100 µM.

Tested on: SN12C renal
Experiment: DTP human tumour cell line panel, 48 h

With O=c1[nH]c2cc([N+](=O)[O-])ccc2nc1/C(=N/Nc1ccccc1)C(O)c1ccc(Cl)cc1Cl (stereo unspecified) as the compound, how does the TGI read?
The TGI was > 100 µM.

Cc1cc(C)nc(NS(=O)(=O)c2ccc(NC(=O)c3cccc4c(Nc5ccc(S(=O)(=O)N=C(N)N)cc5)c5ccccc5nc34)cc2)n1 was tested. Which TGI did it give?
The TGI was > 100 µM.

With C#CCn1c(=O)[nH]c(=O)c2cccnc21 as the compound, how does the TGI read?
The TGI was > 100 µM.

Reference: PubChem BioAssay (NCI)
